Where “and” joins values, the source holds several entries; their conditions need not be identical. Equal values may be shown once.

One may read the solubility as the concentration that dissolves in the medium under given conditions. Read a low solubility as little dissolved substance.

One data set concerns platelets. Description: Flow cytometry assay of platelet degranulation (P-Selectin surface expression in PRP). Type of data set: cell-based, human. The following applies: PRP pre-incubated with compound (100 µM), then CRP-XL (1 µg/mL); % ±SEM normalized to CRP-XL-treated vehicle PRP. Here is the method:
Platelet Degranulation Studies of Derivatives. Concurrent with the β-Arrestin recruitment potency optimization, the compounds were also tested and developed according to their functional activity. To determine the ability of a compound to modulate platelets, P-Selectin surface expression was measured. P-Selectin is a surface protein involved in cell adhesion mechanisms and can be found on activated platelets. After induction of platelet aggregation in platelet-rich plasma (PRP), treatment with the respective compound should therefore lead to a significant reduction in P-Selectin expression. […]. […]. Similarly, platelet degranulation potency was highly sensitive toward "linker"-changes (Structure C, Table 1). A distinct trend could not be registered. […]. Flow Cytometry Assay. The inhibition of platelet degranulation was determined via flow cytometry experiments. Platelets were treated with collagen-related peptide (CRP-XL, CambCol Laboratories, Cambridge, UK) and the platelets' activation state was determined (Geue, S.; Aurbach, K.; Manke, M.-C.; Manukjan, G.; Münzer, P.; Stegner, D.; Brähler, C.; Walker-Allgaier, B.; Märklin, M.; Borst, C. E.; Quintanilla-Fend, L.; Rath, D.; Geisler, T.; Salih, H. R.; Seizer, P.; Lang, F.; Nieswandt, B.; Gawaz, M.; Schulze, H.; Pleines, I.; Borst, O. Pivotal role of pdk1 in megakaryocyte cytoskeletal dynamics and polarization during platelet biogenesis. Blood 2019, 134, 1847-1858; and Malehmir, M.; Pfister, D.; Gallage, S.; Szydlowska, M.; Inverso, D.; Kotsiliti, E.; Leone, V.; Peiseler, M.; Surewaard, B. G. J.; Rath, D.; Ali, A.; Wolf, M. J.; Drescher, H.; Healy, M. E.; Dauch, D.; Kroy, D.; Krenkel, O.; Kohlhepp, M.; Engleitner, T.; Olkus, A.; Sijmonsma, T.; Volz, J.; Deppermann, C.; Stegner, D.; Helbling, P.; Nombela-Arrieta, C.; Rafiei, A.; Hinterleitner, M.; Rail, M.; Baku, F.; Borst, O.; Wilson, C. L.; Leslie, J.; O'Connor, T.; Wes-ton, C. J.; Chauhan, A.; Adams, D. H.; Sheriff, L.; Teijeiro, A.; Prinz, M.; Bogeska, R.; An-stee, N.; Bongers, M. N.; Notohamiprodjo, M.; Geisler, T.; Withers, D. J.; Ware, J.; Mann, D. A.; Augustin, H. G.; Vegiopoulos, A.; Milsom, M. D.; Rose, A. J.; Lalor, P. F.; Llovet, J. M.; Pinyol, R.; Tacke, F.; Rad, R.; Matter, M.; Djouder, N.; Kubes, P.; Knolle, P. A.; Unger, K.; Zender, L.; Nieswandt, B.; Gawaz, M.; Weber, A.; Heikenwalder, M. Platelet gpibα is a mediator and potential interventional target for nash and subsequent liver cancer. Nat. Med. 2019, 25, 641-655). Briefly, PRP was isolated from peripheral human blood collected in citrate-phosphate-dextrose solution with adenine (CPDA) and diluted with phosphate-buffered saline (PBS) (Sigma Aldrich Co., Ltd., St. Luis, Missouri, USA) supplemented with CaCl2 and MgCl2. PRP (106 platelets /sample) was preincubated with the respective compound (100 µM) for 15 min. Samples were treated with 1 µg/ml CRP-XL (CambCol Laboratories, Cambridge, UK) for 30 min at room temperature in the presence of the respective fluorochrome-conjugated antibody against P-Selectin (CD62P-FITC; Beckman Coulter, Brea, CA, USA). Subsequently, samples were fixed in 0.5% paraformaldehyde and analyzed on a FACS-Calibur flow cytometer (FACS-Caliber flow cytometer, Becton-Dickinson, East Rutherford, NJ, USA). Mean fluorescence intensity (MFI) was used as a quantitative measurement of platelet surface expression.

In another data set the test system is HEK293 cells. Description: RealTime-Glo MT cell viability assay. Type of data set: cell-based. Particulars: concentrations of 1 µM and below, up to 72 h. Here is the method: Cell viability studies. […].
Cell Viability Assay. RealTime-Glo™ MT Cell Viability Assay (Promega Corporation, Madison, WI, USA) was performed using THP1 cells and HEK293 cells as indicated in the manufacturer's manual to measure a compound's cytotoxicity on cells. In brief, in a white solid-bottom 96-well plate cells (5x10^3/well) were seeded and incubated with the respective compounds diluted in DMEM (Gibco, Carlsbad, CA, USA). After cell seeding viability reagent is added. Subsequently, cells were incubated with the compound and viability reagent containing medium at 37 °C, 5% CO2 for 72 h. The luminescence signal was determined after 1, 24, 48, and 72 hours on a GloMax®-Multi Detection System plate reader (Promega Corporation, Madison, Wl, USA).

Data set [1] in a line: Metabolic stability assay in human liver microsomes. In kind it is in vitro ADME. Here is the method:
(§1) Metabolic Stability Assay. Pooled liver microsomes from mice (male) and humans (male) were purchased from Sekisui XenoTech, LLC, Kansas City, KS, USA. Metabolic stability assays were performed in the presence of an NADPH-regenerating system consisting of 5 mM glucose-6-phosphate, 5 U/mL glucose-6-phosphate dehydrogenase, and 1 mM NADP^+. Liver microsomes (20 mg/mL), NADPH-regenerating system, and 4 mM MgCl2·6 H2O in 0.1 M TRIS-HCl-buffer (pH 7.4) were preincubated for 5 min at 37 °C and 750 rpm on a shaker. The reaction was started by adding the preheated compound at 10 mM resulting in a final concentration of 0.1 mM. […] The samples were vortexed for 30 s and centrifuged (21910 relative centrifugal force, 4 °C, 20 min). The supernatant was used directly for LC-MS analysis.
(§2) All compound incubations were conducted at least in triplicates. Additionally, a negative control containing BSA (20 mg/mL) instead of liver microsomes and a positive control using Verapamil instead of the compound was performed. A limit of 1% organic solvent during incubation was not exceeded. […]
(Microsomes from liver hold many membrane-bound enzymes, among them those of drug oxidation.)

Data set [2] is described as follows: Metabolic stability assay in mouse liver microsomes. In kind it is in vitro ADME. Particulars: after 60 min. Here is the method: as §1, §2
The nature of the next data set: Kinetic solubility assay. Particulars: PBS buffer with 1% DMSO, 4 °C, aqueous buffer, kinetic from dmso stock, 1% DMSO, 99% PBS buffer (pH 7.4). Type of data set: physicochemical. The protocol: Solubility Assay. A 100 mL flask with phosphate-buffered saline was prepared from NaCl, KCI, Na2HPO4, KH2PO4, and distilled water. The buffer was adjusted to pH 7.4 with HCl. Afterwards, 10mM stock solutions of compounds in DMSO were prepared. 10 µL compound stock solution was added to 990 µL PBS in Eppendorf tubes. As a reference, 10 µL compound stock solution was added to 990 µL HPLC-grade MeOH in Eppendorf tubes. All tubes were centrifuged (16000 relative centrifugal force, 4 °C, 20 min). Subsequently, 600 µL supernatant was extracted carefully and filled into HPLC vials. […] Compounds solubility was calculated by AUC of compound in PBS divided by AUC of reference solution multiplied by concentration of the compound in solution.

With `CCCCN(CCCNC(=O)c1ccc(-c2ccccc2)s1)Cc1ccccc1` [Compound 27, N-(3-(benzyl(butyl)amino)propyl)-5-phenylthiophene-2-carboxamide], in the data set with platelets, the P-Selectin expression reduction was 77% and 77±6%. Moreover, the “cell toxicity / tolerability (in words)” value in the data set on HEK293 cells was “tolerated well”. In addition, the compound remained entry in data set [1] (60 min) was “Around 69%”; in data set [2], “around 24%”. The “metabolic stability (in words)” value in data set [1] (over the course of 60 min) is recorded as “stable”. The solubility in “Kinetic solubility assay” is 10 µg/mL; in “Kinetic solubility assay” (average of three independent experiments ± SEM), 28 ± 4 µM.

Values taken from patent publication EP4620949A1, “ACKR3 MODULATORS FOR CARDIOVASCULAR OR ANTIPLATELET THERAPY” (Eberhard Karls Universität Tübingen (Medizinische Fakultät), priority 2024, dated 2025).
